Reference: paper PMC12133982, “Predominant T-cell epitopes of SARS-CoV-2 restricted by multiple prevalent HLA-B and HLA-C allotypes in Northeast Asia” (Frontiers in Immunology, 2025)
pIC50: −log10 of the molar value. Peptide text beside a SMILES is read from it.

Legend:
HLA-C0702 = HLA-C0702 (Homo sapiens, UniProt P10321); experiment: Competitive peptide binding assay, CIR-C0702
HLA-C0602 = HLA-C0602 (Homo sapiens, UniProt P10321, A176E/A330V/C350S/L171W/L180W/L218V/M285V/M309V/M331V/N104K/P208H/Q277E/Q291P/R121W/S101N/S123Y/S297R/T329A/T363A/V319A/V328M); experiment: Competitive peptide binding assay, CIR-C0602
HLA-B1501 = HLA-B1501 (Homo sapiens, UniProt P01889, A329T/A93T/A95T/C349S/D201E/D98Y/E187L/E204Q/E69M/E70A/K202T/N87E/Q94N/R155S/R180W/S121R/S35A/S48A/V306I/V36M/Y140S/Y91S); experiment: Competitive peptide binding assay, CIR-B1501; details: HMy2.CIR-B1501 cells, reference Cy5-[…], class from inhibition at 5 and 15 μM, flow cytometry MFI; read-out: Binding affinity with HLA-B1501
Description: (§1) Then, competitive peptide binding assays were performed.

HLA-B3501 = HLA-B3501 (Homo sapiens, UniProt P01889, A329T/A93T/A95T/C349S/D201E/D98Y/E176V/E187L/E204Q/E69T/I218V/K202T/L119I/Q94N/R155S/R180L/S121R/S35A/S48A/T118I/V127L/V306I/V36M/Y140S/Y91F); experiment: Competitive peptide binding assay, CIR-B3501; details: HMy2.CIR-B3501 cells, reference Cy5-[…], class from inhibition at 5 and 15 μM, flow cytometry MFI; read-out: Binding affinity with HLA-B3501
Description: as §1

HLA-B5801 = HLA-B5801 (Homo sapiens, UniProt P01889, A329T/C349S/D201E/D98Y/E176V/E187L/E204Q/E69T/G107R/I218V/I90N/K202T/L105A/L119I/N104I/N87E/Q89R/Q94S/R106L/R155S/R180L/R86G/S101N/S121R/S35A/S48A/T118I/V127L/V306I/V36M/Y140S/Y91M); experiment: Competitive peptide binding assay, CIR-B5801; details: HMy2.CIR-B5801 cells, reference Cy5-[…], class from inhibition at 5 and 15 μM, flow cytometry MFI; read-out: Binding affinity with HLA-B5801
Description: as §1

HLA-B1302 = HLA-B1302 (Homo sapiens, UniProt P01889, A65T/A93T/A95T/D138N/D201E/D98Y/E176V/E204Q/E69M/E70A/G107R/K202T/L105A/L119W/N104T/N87E/Q94N/R106L/R155S/R169L/R180L/S101N/S121T/S35A/S48T/V127L/V36M/Y140L/Y91S); experiment: Competitive peptide binding assay, CIR-B1302; details: HMy2.CIR-B1302 cells, reference Cy5-MMWYWGPSL, class from inhibition at 5 and 15 μM, flow cytometry MFI; read-out: Binding affinity with HLA-B1302
Description: as §1

HLA-B4601 = HLA-B4601 (Homo sapiens, UniProt P01889, A329T/A93R/C349S/D201E/E100V/E187L/E204Q/E69M/E70A/I90K/K202T/N87E/R155S/R180W/S121R/S35A/S48A/V306I/V36M/Y140S); experiment: Competitive peptide binding assay, CIR-B4601; details: for pIC50: HMy2.CIR-B4601 cells, reference Cy5-[…], class from inhibition at 5 and 15 μM, flow cytometry MFI, read-out: Binding affinity with HLA-B4601; for inhibition at 5 µM: read-out: Inhibition % of Cy5-reference peptide binding, CIR-B4601, 5μM peptide; for inhibition at 15 µM: read-out: Inhibition % of Cy5-reference peptide binding, CIR-B4601, 15μM peptide
Description: as §1

HLA-B1502 = HLA-B1502 (Homo sapiens, UniProt P01889, A329T/A93T/A95T/C349S/D201E/D98Y/E187L/E204Q/E69M/E70A/H137Y/K202T/L119I/Q94N/R155S/R180L/S121R/S35A/S48A/T118I/V306I/V36M/Y140S/Y91S); experiment: Competitive peptide binding assay, CIR-B1502; details: HMy2.CIR-B1502 cells, reference Cy5-[…], class from inhibition at 5 and 15 μM, flow cytometry MFI; read-out: Binding affinity with HLA-B1502
Description: as §1

HLA-B1301 = HLA-B1301 (Homo sapiens, UniProt P01889, A65T/A93T/A95T/D138N/D201E/D98Y/E176V/E204Q/E69M/E70A/G107R/K202T/L105A/L119I/N104T/N87E/Q94N/R106L/R155S/R169L/R180L/S101N/S121R/S35A/S48T/T118I/V127L/V36M/Y140L/Y91S); experiment: Competitive peptide binding assay, CIR-B1301; details: HMy2.CIR-B1301 cells, reference Cy5-[…], class from inhibition at 5 and 15 μM, flow cytometry MFI; read-out: Binding affinity with HLA-B1301
Description: as §1

Row | Compound | pIC50 (HLA-C0702) | pIC50 (HLA-C0602) | pIC50 (HLA-B1501) | pIC50 (HLA-B3501) | pIC50 (HLA-B5801) | pIC50 (HLA-B1302) | pIC50 (HLA-B4601) | pIC50 (HLA-B1502) | inhibition at 5 µM (HLA-B4601) | inhibition at 15 µM (HLA-B4601) | pIC50 (HLA-B1301)
1 | CC[C@H](C)[C@H](NC(=O)[C@@H]1CCCN1C(=O)[C@@H](NC(=O)[C@H](Cc1c[nH]cn1)NC(=O)[C@H](CCCCN)NC(=O)[C@H](CO)NC(=O)[C@@H](N)Cc1ccc(O)cc1)[C@@H](C)O)C(=O)N[C@@H](CC(N)=O)C(=O)N[C@@H](CC(C)C)C(=O)O [Epitope M127] (H-YSKHTPINL-OH; N-terminus and C-terminus assumed) | < 4.82 | < 4.82 | – | – | – | – | – | – | – | – | –
2 | CC(C)C[C@H](N)C(=O)N1CCC[C@H]1C(=O)N[C@@H](CC(N)=O)C(=O)N[C@@H](CC(N)=O)C(=O)N[C@H](C(=O)N[C@@H](C)C(=O)N[C@@H](CO)C(=O)N[C@@H](Cc1c[nH]c2ccccc12)C(=O)N[C@@H](Cc1ccccc1)C(=O)O)[C@@H](C)O [Epitope Y17] (H-LPNNTASWF-OH; N-terminus and C-terminus assumed) | – | – | < 4.82 | > 5.30 | < 4.82 | < 4.82 | – | – | – | – | –
3 | CSCC[C@H](NC(=O)[C@H](CO)NC(=O)[C@H](CCCNC(=N)N)NC(=O)[C@@H](NC(=O)[C@H](CCCNC(=N)N)NC(=O)[C@H](C)NC(=O)[C@@H](N)Cc1ccccc1)[C@@H](C)O)C(=O)N[C@@H](Cc1c[nH]c2ccccc12)C(=O)N[C@@H](CO)C(=O)N[C@@H](Cc1ccccc1)C(=O)O [Epitope Y47] (H-FARTRSMWSF-OH; N-terminus and C-terminus assumed) | – | – | – | > 5.30 | < 4.82 | < 4.82 | < 4.82 | > 5.30 | – | – | –
4 | C[C@H](NC(=O)[C@H](Cc1ccc(O)cc1)NC(=O)[C@H](C)NC(=O)[C@@H](N)Cc1ccccc1)C(=O)N[C@@H](CC(N)=O)C(=O)N[C@@H](CCCNC(=N)N)C(=O)N[C@@H](CC(N)=O)C(=O)N[C@@H](CCCNC(=N)N)C(=O)N[C@@H](Cc1ccccc1)C(=O)O [Epitope Y49] (H-FAYANRNRF-OH; N-terminus and C-terminus assumed) | – | – | < 4.82 | > 5.30 | 4.82 to 5.30 | < 4.82 | – | – | – | – | –
5 | CC[C@H](C)[C@H](NC(=O)[C@H](CO)NC(=O)[C@H](CCC(N)=O)NC(=O)[C@H](CO)NC(=O)[C@H](C)NC(=O)[C@@H](N)C(C)C)C(=O)N[C@H](C(=O)N[C@@H](C)C(=O)N[C@@H](Cc1ccc(O)cc1)C(=O)O)[C@@H](C)CC [Epitope Y151] (H-VASQSIIAY-OH; N-terminus and C-terminus assumed) | – | – | < 4.82 | > 5.30 | < 4.82 | > 5.30 | – | – | – | – | –
6 | CC[C@H](C)[C@H](NC(=O)[C@H](CC(C)C)NC(=O)[C@@H](N)CCC(=O)O)C(=O)N[C@@H](CCCNC(=N)N)C(=O)N[C@@H](CCC(N)=O)C(=O)NCC(=O)N[C@H](C(=O)N[C@@H](CC(=O)O)C(=O)N[C@@H](Cc1ccc(O)cc1)C(=O)O)[C@@H](C)O [Epitope Y162] (H-ELIRQGTDY-OH; N-terminus and C-terminus assumed) | – | – | < 4.82 | < 4.82 | 4.82 to 5.30 | < 4.82 | > 5.30 | 4.82 to 5.30 | – | – | –
7 | CC[C@H](C)[C@H](NC(=O)[C@@H](NC(=O)[C@H](CCC(=O)O)NC(=O)[C@H](CCC(=O)O)NC(=O)[C@@H](N)Cc1c[nH]cn1)[C@@H](C)O)C(=O)N[C@@H](Cc1ccc(O)cc1)C(=O)N[C@@H](CC(N)=O)C(=O)N[C@@H](CC(C)C)C(=O)N[C@@H](CC(C)C)C(=O)O [Epitope Y199] (H-HEETIYNLL-OH; N-terminus and C-terminus assumed) | – | – | – | > 5.30 | 4.82 to 5.30 | 4.82 to 5.30 | < 4.82 | – | 24.9% | 44.1% | –
8 | C[C@@H](O)[C@H](NC(=O)CNC(=O)[C@H](CCC(N)=O)NC(=O)[C@@H](N)CCCNC(=N)N)C(=O)N[C@@H](CC(=O)O)C(=O)N[C@@H](Cc1ccc(O)cc1)C(=O)N[C@@H](CCCCN)C(=O)N[C@@H](Cc1c[nH]cn1)C(=O)N[C@@H](Cc1c[nH]c2ccccc12)C(=O)O [Epitope Y222] (H-RQGTDYKHW-OH; N-terminus and C-terminus assumed) | – | – | 4.82 to 5.30 | – | – | < 4.82 | – | – | – | – | –
9 | C[C@H](NC(=O)[C@H](CO)NC(=O)[C@H](CO)NC(=O)[C@@H](N)Cc1ccc(O)cc1)C(=O)N[C@@H](CC(N)=O)C(=O)N[C@@H](CC(N)=O)C(=O)N[C@@H](CS)C(=O)N[C@H](C(=O)N[C@@H](Cc1ccccc1)C(=O)O)[C@@H](C)O [Epitope Y247] (H-YSSANNCTF-OH; N-terminus and C-terminus assumed) | – | – | < 4.82 | < 4.82 | > 5.30 | 4.82 to 5.30 | 4.82 to 5.30 | < 4.82 | 44.6% | 86.4% | < 4.82
10 | CC(C)C[C@H](NC(=O)[C@H](CC(=O)O)NC(=O)[C@H](CCC(N)=O)NC(=O)[C@@H](NC(=O)[C@@H](N)CO)[C@@H](C)O)C(=O)N[C@@H](Cc1ccccc1)C(=O)N[C@@H](CC(C)C)C(=O)N1CCC[C@H]1C(=O)N[C@@H](Cc1ccccc1)C(=O)O [Epitope Y249] (H-STQDLFLPF-OH; N-terminus and C-terminus assumed) | – | – | 4.82 to 5.30 | – | – | < 4.82 | – | – | – | – | < 4.82
11 | CC(C)[C@H](NC(=O)[C@@H](N)Cc1ccccc1)C(=O)N[C@@H](CO)C(=O)N[C@@H](CC(N)=O)C(=O)NCC(=O)N[C@H](C(=O)N[C@@H](Cc1c[nH]cn1)C(=O)N[C@@H](Cc1c[nH]c2ccccc12)C(=O)N[C@@H](Cc1ccccc1)C(=O)O)[C@@H](C)O [Epitope Y250] (H-FVSNGTHWF-OH; N-terminus and C-terminus assumed) | – | – | < 4.82 | < 4.82 | – | < 4.82 | – | < 4.82 | – | – | –
12 | CC(C)[C@H](NC(=O)CNC(=O)[C@H](Cc1c[nH]cn1)NC(=O)[C@@H]1CCCN1C(=O)[C@H](C)NC(=O)[C@H](CO)NC(=O)[C@H](CCC(N)=O)NC(=O)[C@@H]1CCCN1C(=O)[C@@H](N)Cc1ccccc1)C(=O)O [Epitope Y281] (H-FPQSAPHGV-OH; N-terminus and C-terminus assumed) | – | – | 4.82 to 5.30 | – | – | < 4.82 | – | < 4.82 | – | – | < 4.82
